ChEMBL document CHEMBL4024747, “Design, Synthesis, and Biological Activities of Vibsanin B Derivatives: A New Class of HSP90 C-Terminal Inhibitors” (J Med Chem, 2017)

Tests used:
Format in all cases: functional, cell-based
HL-60 = assay: Antiproliferative activity against human HL60 cells assessed as reduction in cell viability after 48 hrs by MTT assay; details: HL-60, 48 h
A549 = assay: Antiproliferative activity against human A549 cells assessed as reduction in cell viability after 48 hrs by MTT assay; details: A549, 48 h
SW480 = assay: Antiproliferative activity against human SW480 cells assessed as reduction in cell viability after 48 hrs by MTT assay; details: SW480, 48 h
SMMC-7721 = assay: Antiproliferative activity against human SMMC7721 cells assessed as reduction in cell viability after 48 hrs by MTT assay; details: SMMC-7721, 48 h
MCF7 = assay: Antiproliferative activity against human MCF7 cells assessed as reduction in cell viability after 48 hrs by MTT assay; details: MCF7, 48 h

Structure (SMILES)	IC50 (HL-60)	IC50 (A549)	IC50 (SW480)	IC50 (SMMC-7721)	IC50 (MCF7)
CC(C)=CCC[C@]1(C)/C=C/[C@@H](OC(=O)C=C(C)C)[C@](C)(O)/C=C/C(=O)/C(CN2CCOCC2)=C\C1	1.11 µM	0.66 µM	0.77 µM	1.14 µM	0.52 µM
CC(C)=CCC[C@]1(C)/C=C/[C@@H](OC(=O)C=C(C)C)[C@](C)(O)/C=C/C(=O)/C(C(=O)N2CCOCC2)=C\C1	3.27 µM	1.67 µM	2.8 µM	3.68 µM	3.36 µM
CC(C)=CCC[C@]1(C)/C=C/[C@@H](OC(=O)C=C(C)C)[C@](C)(O)/C=C/C(=O)/C(C(=O)N2CCN(C)CC2)=C\C1	5.47 µM	8.44 µM	4.52 µM	11.7 µM	6.3 µM
CC(C)=CCC[C@](C)(/C=C/[C@@H](OC(=O)C=C(C)C)[C@](C)(O)/C=C/C(=O)/C=C/N1CCN(C)CC1)CC=O	1.06 µM	2.66 µM	12.4 µM	3.09 µM	8.84 µM
CC[Si](CC)(CC)OC/C1=C/C[C@](C)(CCC=C(C)C)/C=C/[C@@H](OC(=O)C=C(C)C)[C@](C)(O)/C=C/C1=O	2.81 µM	3.1 µM	2.69 µM	3.46 µM	3.15 µM
CO[C@@H]1/C=C/[C@@](C)(O)[C@H](OC(=O)C=C(C)C)/C=C/[C@@](C)(CCC=C(C)C)C/C=C\1CO	13.8 µM	11.2 µM	12.8 µM	38.8 µM	33.3 µM
CC(=O)O[C@@H]1/C=C/[C@@](C)(CCC=C(C)C)C/C=C(/CO)C(=O)/C=C/[C@@]1(C)O	5.05 µM	8.67 µM	4.9 µM	9.87 µM	7.89 µM
CC(C)=CCC[C@]1(C)/C=C/[C@@H](OC(=O)C=C(C)C)[C@](C)(O)/C=C/C(=O)/C(CO[Si](C)(C)C(C)(C)C)=C\C1	2.77 µM	4.2 µM	3.35 µM	4 µM	6.04 µM
CC(C)=CCC[C@]1(C)/C=C/[C@@H](OC(=O)C=C(C)C)[C@](C)(O)/C=C/C(=O)/C(C(=O)O)=C\C1	> 10 µM	> 10 µM	> 10 µM	> 10 µM	16.1 µM
CC(C)=CCC[C@]1(C)/C=C/[C@@H](OC(=O)C=C(C)C)[C@](C)(O)CCC(=O)/C(CO)=C\C1	> 40 µM	> 40 µM	> 40 µM	> 40 µM	> 40 µM
CC(C)=CCC[C@]1(C)/C=C/[C@@H](OC(=O)c2ccccc2)[C@](C)(O)/C=C/C(=O)/C(CO)=C\C1	22.6 µM	15.8 µM	10.3 µM	20.3 µM	27 µM
COCOC/C1=C/C[C@](C)(CCC=C(C)C)/C=C/[C@@H](OC(=O)C=C(C)C)[C@](C)(O)/C=C/C1=O	2.84 µM	2.98 µM	3.71 µM	3.25 µM	3.12 µM
CC(=O)OC/C1=C/C[C@](C)(CCC=C(C)C)/C=C/[C@@H](OC(=O)C=C(C)C)[C@](C)(OC(C)=O)/C=C/C1=O	3.48 µM	15.1 µM	3.52 µM	4.13 µM	3.99 µM
CC(C)=CCC[C@]1(C)/C=C/[C@@H](OC(=O)C=C(C)C)[C@](C)(O)/C=C/C(O)/C(C=O)=C\C1 (stereo not given in full)	0.24 µM	0.57 µM	1.43 µM	0.73 µM	2.32 µM
CO[C@H]1/C=C/[C@@](C)(O)[C@H](OC(=O)C=C(C)C)/C=C/[C@@](C)(CCC=C(C)C)C/C=C\1CO	14.8 µM	19.2 µM	16.6 µM	38.1 µM	18.5 µM
CO[C@]1(C)/C=C/C(=O)/C(CO)=C\C[C@](C)(CCC=C(C)C)/C=C/[C@H]1OC(=O)C=C(C)C	14.3 µM	14.3 µM	15.2 µM	15.8 µM	14.3 µM
